According to article PMC12518639, “Apomorphine is a novel necroptosis inhibitor targeting mixed lineage kinase domain-like protein oligomerization” (Cell Death Discovery, 2025):

Legend:
[1] = test system: MLKL; experiment: Confocal microscopy of MLKL membrane translocation; type: cell-based, human; settings: THP-1, TBZ, 8 h
Procedure: THP-1 cells were washed and fixed in 4% paraformaldehyde and incubated in 0.25% Triton X-100 for 10 min, blocked for 30 min with 5% BSA-PBS, and stained with the MLKL and CD36 (ab252922, Abcam) antibody. The nuclei were stained with DAPI. Confocal microscopy (FV1000, Olympus, Tokyo, Japan) was used for image analysis. The signal intensity was measured using FluoView FV1000 software.

[2] = test system: p-MLKL oligomer; experiment: MLKL oligomerization Western blot (non-reducing/reducing) in THP-1 cells; type: cell-based, human; settings: THP-1, TBZ, 8 h; for tetramerization and octamerization of p-MLKL: non-reducing conditions; for phosphorylation levels of RIP1, RIP3 and MLKL: reducing conditions
Procedure: Fig. 2 Effect of redox-sensitive APO on MLKL oligomerization. A Chemical structure of APO. APO undergoes auto-oxidation to form the oxidized form (Ox-APO), while the addition of DTT preserves the reduced form (Re-APO). The red highlights indicate the sites where APO loses hydrogen and electrons during the oxidation process. B Real-time 1D ^1H NMR spectra showing the degree of oxidation of APO. APO was dissolved from its powdered form in DPBS and incubated at 25 °C for 36 h. Real-time 1D ^1H NMR spectra were measured at a 2 h intervals after filtration through a 0.2 μm syringe filter to remove precipitates. […] C MLKL oligomerization is inhibited by APO. THP-1 cells were treated with TBZ and Re-APO or Ox-APO for 8 h. Western blot analysis of WCLs was performed under non-reducing and reducing conditions using the indicated antibodies. Percentage changes of p-MLKL oligomer band relative to GAPDH were shown. The p value for MLKL oligomer band intensity was calculated based on the average intensity of the tetramer and octamer bands. Octa octamer, Tetra tetramer, Mono monomer. Mean ± SEM (n = 3). **p < 0.001, ns not significant, one-way ANOVA. D THP-1 cells were treated with TBZ and Ox-APO or Re-APO for 8 h and then stained with DAPI and MLKL for confocal microscopy. In the intensity graph, green indicates MLKL. The signal intensity of MLKL fluorescence from the plasma membrane to the cytosol was measured using FluoView FV1000 software. Mean ± SEM (n > 100). **p < 0.01, ***p < 0.001, one-way ANOVA. E J774A.1 mouse monocytic cells were treated with TBZ and 20 μM Re-APO or Ox-APO for 8 h. Western blot analysis of WCLs was performed under non-reducing and reducing conditions using the indicated antibodies.
The cells were harvested and lysed in 1× RIPA buffer (R4100-010, GenDEPOT, Katy, TX, USA) containing protease (P3100-001, GenDEPOT) and phosphatase (1862495, Thermo Fisher Scientific) inhibitors. WCLs were then centrifuged at 20,000×g for 30 min at 4 °C and subjected to non-reducing or reducing 8–12% SDS-PAGE gel electrophoresis. The membrane was blocked with 5% non-fat milk in TBS and probed with antibodies. Antibodies to hMLKL (14993S), mMLKL (97705S), phospho-hMLKL (Ser358) (91689S), phospho-mMLKL (Ser345) (37333S), phospho-hRIP1 (Ser166) (65746S), mRIP1 (3493S), phospho-mRIP1 (Ser321) (38662S), phospho-hRIP3 (Ser227) (93654), mRIP3 (95702S), p-mRIP3 (Thr231/Ser232) (91702S), and LDH (2012S) (Cell Signaling Technology, Danvers, MA, USA), and GAPDH (LF-PA0018, Abfrontier, S. Korea), hRIP1 (ab72139, Abcam, Cambridge, UK), hRIP3 (sc-135170, Santa Cruz Biotechnology, Dallas, TX, USA), HMGB1 (ab78923, Abcam), and LAMP1 (ab24170, Abcam) antibodies were used.

[3] = test system: APAP-induced liver injury in BALB/c mice; experiment: APAP-induced liver injury model; type: in vivo, mouse; settings: 15 mg/kg once, APAP i.p., 24 h; for Necrotic area of liver tissue (H&E): n=3
Procedure: For APAP-induced liver injury, male BALB/c mice aged 6–8 weeks (Central Lab Animal Inc., S. Korea) and male MLKL^–/– C57BL/6 mice aged 6–8 weeks (Cyagen, Santa Clara, CA, USA) were administered acetaminophen (APAP; 400–500 mg/kg, 103-90-2, Sigma-Aldrich) by i.p. injection to induce liver injury in the presence or absence of APO after 12 h of fasting. After 24 h, the mice were sacrificed to obtain liver tissues for further analysis.
For liver tissue preparation, each liver was perfused with DPBS and then fixed in 4% paraformaldehyde (PFA; PC2031-050-00, Biosesang, S. Korea) before embedding in paraffin. Sections were stained with H&E, and necrotic areas were quantified using ImageJ by calculating the proportion of pale or unstained regions relative to the total tissue area. Mouse liver sections were subjected to IHC staining to assess distinct forms of cell death: an anti-p-MLKL antibody (MA5-32752, Thermo Fisher Scientific) to evaluate p-MLKL localization (necroptosis), a TUNEL assay kit (4810-30-K, R&D Systems) for apoptosis, and an anti-4-HNE antibody (GTX01087, GeneTex) for ferroptosis.

Row | Structure (SMILES) | level of MLKL in the cell membrane [1] | inhibition of migration of p-MLKL to the cell membrane ([1]; same concentration) | tetramerization and octamerization of p-MLKL [2] | phosphorylation levels of RIP1, RIP3 and MLKL [2] | Serum ALT and AST levels [3] | membrane p-MLKL in liver (IHC) [3] | Necrotic area of liver tissue (H&E) [3] [%]
1 | CN1CCc2cccc3c2[C@@H]1Cc1ccc(O)c(O)c1-3 [S62, (6aS)-6-methyl-5,6,6a,7-tetrahydro-4H-dibenzo[de,g]quinoline-10,11-diol] | profoundly decreased |  |  |  |  |  | 
2 | CN1CCc2cccc3c4c(cc1c23)C=CC(=O)C4=O [Ox-APO] |  | more effective than Re-APO | strongly inhibited | little effect | significantly improved | dramatic decrease | 1
3 | CN1CCc2cccc3c2C1Cc1ccc(O)c(O)c1-3 (stereo not drawn) [Re-APO] |  |  | less effective than Ox-APO | little effect | significantly improved | dramatic decrease | 3
